Patent publication US8431593B2, “Heteroaryl amide derivatives” (H. Lundbeck A/S, priority 2006, dated 2013)
pIC50: −log10 of the molar value. Like-named read-outs stand apart in the source and are kept apart here.

Target: T1, P2X7 receptor (Homo sapiens, UniProt Q99572)
T1 construct: host or cells: SH-SY5Y
T1 sequence (Q99572 1-595): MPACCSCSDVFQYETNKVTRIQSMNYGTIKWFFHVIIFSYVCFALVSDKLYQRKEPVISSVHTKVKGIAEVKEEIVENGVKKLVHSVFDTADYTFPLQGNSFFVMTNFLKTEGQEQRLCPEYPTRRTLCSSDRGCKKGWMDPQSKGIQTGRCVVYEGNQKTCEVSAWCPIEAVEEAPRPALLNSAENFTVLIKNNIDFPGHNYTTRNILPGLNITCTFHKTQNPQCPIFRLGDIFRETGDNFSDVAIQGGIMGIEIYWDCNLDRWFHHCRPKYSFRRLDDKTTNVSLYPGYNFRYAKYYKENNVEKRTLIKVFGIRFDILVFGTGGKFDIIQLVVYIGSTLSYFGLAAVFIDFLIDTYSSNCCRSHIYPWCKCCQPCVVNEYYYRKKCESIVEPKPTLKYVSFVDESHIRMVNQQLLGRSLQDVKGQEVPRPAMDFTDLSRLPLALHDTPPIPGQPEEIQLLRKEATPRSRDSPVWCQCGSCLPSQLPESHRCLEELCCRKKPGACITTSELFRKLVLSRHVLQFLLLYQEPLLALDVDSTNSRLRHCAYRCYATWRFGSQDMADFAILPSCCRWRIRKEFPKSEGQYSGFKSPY
Experiment: P2X7 calcium mobilization assay, high throughput, antagonist activity (Example 4A)
Format: cell-based
Conditions: read-out: IC50
Experimental: One day prior to the experiment, cells are plated at a density of 100,000 cells/well in a 96 well black/clear TC plate (Corning® Costar®, Sigma-Aldrich Co., St. Louis, Mo.). […] After one hour dye incubation, wells are rinsed once with 50 μL assay solution, and are then incubated for an hour at room temperature with 100 μL assay solution containing the test compound. […] After the one hour incubation, plates are transferred to a FLIPR^TETRA instrument (Molecular Devices, Sunnyvale, Calif.) for calcium mobilization analysis.
First, the average maximum relative fluorescent unit (RFU) response from the negative control wells (no agonist) is subtracted from the maximum response detected for each of the other experimental wells. Second, average maximum RFU response is calculated for the positive control wells (agonist wells).

[1] = fluorescence response of cells exposed to 80 μM 2′(3′)-O-(4-benzoyl-benzoyl)adenosine 5′-triphosphate, Example 4A
[2] = 50% decrease in the fluorescence response of cells exposed to 80 μM 2′(3′)-O-(4-benzoyl-benzoyl)adenosine 5′-triphosphate, Example 4A
[3] = 50% decrease in the fluorescence response of cells exposed to 80 μM of 2′(3′)-O-(4-benzoyl-benzoyl)adenosine 5′-triphosphate, determined as in Example 4A
[4] = SH-SY5Y cells, 50% decrease in fluorescence response to 80 μM BzATP

## C[C@@H]1COC[C@H](C)N1Cc1cn2c(C(=O)NCC34CC5CC(CC(C5)C3)C4)cccc2n1 (relative stereo) [Compound 343, rel-N-(adamantan-l-ylmethy)-2-{[(3R, 5S)-3,5-dimethylmorpholin-4-yl]methyl}imidazo[1,2-a]pyridine-5-carboxamide]
[1]
  pIC50: > 5.70

## CC1(C)C2CC[C@H](CNC(=O)c3cccc4nc(C(=O)N5CCC[C@@H](N)C5)cn34)C1C2 (relative stereo) [Compound 548, rel-2-{[(3R)-3-aminopiperidin-1-yl]carbonyl}-N-{[(2S)-6,6-dimethylbicyclo[3.1.1]hept-2-yl]methyl}imidazo[1,2-a]pyridine-5-carboxamide]
[2]
  pIC50: > 5.70

## CC1(C)C2CC[C@H](CNC(=O)c3cccc4nc(CC(=O)N5CC[C@@H](N)C5)cn34)C1C2 (relative stereo) [Compound 549, rel-2-{2-[(3R)-3-aminopyrrolidin-1-yl]-2-oxoethyl}-N-{[(2S)-6,6-dimethylbicyclo[3.1.1]hept-2-yl]methyl}imidazo[1,2-a]pyridine-5-carboxamide]
[2]
  pIC50: > 5.70

## CC1(C)C2CC[C@H](CNC(=O)c3cccc4nc(CC(=O)N5CCC[C@@H](N)C5)cn34)C1C2 (relative stereo) [Compound 550, rel-2-{2-[(3R)-3-aminopiperidin-1-yl]-2-oxoethyl}-N-{[(2S)-6,6-dimethylbicyclo[3.1.1]hept-2-yl]methyl}imidazo[1,2-a]pyridine-5-carboxamide]
[2]
  pIC50: > 5.70

## O=C(NCC12CC3CC(CC(C3)C1)C2)c1cccc2nc([C@H]3CCCC[C@H]3C(=O)O)cn12 (relative stereo) [Compound 995, rel-(1R,2S)-2-{5-[(adamantan-1-ylmethyl)carbamoyl]imidazo[1,2-a]pyridin-2-yl} cyclohexane-carboxylic acid]
[3]
  pIC50: > 5.70

## CCOC(=O)[C@@H]1CCCC[C@@H]1c1cn2c(C(=O)NCC34CC5CC(CC(C5)C3)C4)cccc2n1 (relative stereo) [Compound 996, ethyl rel-(1R,2S)-2-{5-[(adamantan-1-ylmethyl)carbamoyl]imidazo[1,2-a]pyridin-2-yl} cyclohexane-carboxylate]
[3]
  pIC50: > 5.70

## CC(C)C(=O)N[C@@H]1CCN(Cc2cn3c(C(=O)NCC45CC6CC(CC(C6)C4)C5)cccc3n2)C1 (stereo in doubt) [Compound 71, N-(adamantan-1-ylmethyl)-2-{[3-(isobutyryl-amino)pyrrolidin-1-yl]methyl}imidazo[1,2-a]pyridine-5-carboxamide]
[4]
  pIC50: > 5.70

## N[C@H]1CCN(C(=O)Cc2cn3c(C(=O)NCC45CC6CC(CC(C6)C4)C5)cccc3n2)C1 (stereo in doubt) [Compound 144, N-(adamantan-1-ylmethyl)-2-[2-(3-aminopyrrolidin-1-yl)-2-oxoethyl]imidazo[1,2-a]pyridine-5-carboxamide]
[4]
  pIC50: > 5.70

## CC1(C)[C@H]2CC[C@@H](CNC(=O)c3cccc4nc(C(=O)N5C[C@H]6CC5CN6)cn34)[C@@H]1C2 (stereo in doubt) [Compound 302, 2-[(1R,4R)-2,5-diazabicyclo[2.2.1]hept-2-ylcarbonyl]-N-{[(1S,2R,5S)-6,6-dimethylbicyclo[3.1.1]hept-2-yl]methyl}imidazo[1,2-a]pyridine-5-carboxamide]
[1]
  pIC50: > 5.70

## CC1(C)[C@H]2CC[C@@H](CNC(=O)c3cccc4nc(C(=O)N5C[C@@H]6CC5CN6)cn34)[C@@H]1C2 (stereo in doubt) [Compound 303, 2-[(1S,4S)-2,5-diazabicyclo[2.2.1]hept-2-ylcarbonyl]-N-{[(1S,2R,5S)-6,6-dimethylbicyclo[3.1.1]hept-2-yl]methyl}imidazo[1,2-a]pyridine-5-carboxamide]
[1]
  pIC50: > 5.70

## CC1(C)[C@@H]2CC[C@@H](CNC(=O)c3cccc4nc(CC(=O)N5C[C@H]6CC5CN6)cn34)[C@H]1C2 (stereo in doubt) [Compound 558, 2-{2-[(1R,4R)-2,5-diazabicyclo[2.2.1]hept-2-yl]-2-oxoethyl}-N-{[(1R,2R,5R)-6,6-dimethylbicyclo [3.1.1]hept-2-yl]methyl}imidazo[1,2-a]pyridine-5-carboxamide]
[2]
  pIC50: > 5.70
